US5352667A, “Non-peptidic surrogates of the Arg-Gly-Asp sequence and pharmaceutical compositions comprising them” (priority 1991, dated 1994)
Entries after “also recorded” stand apart in the source; their conditions may differ.

Key:
[1] = test system: BHK cells and chick embryo fibroblasts; conditions: Yamada and Kennedy, 1987; cited from earlier work
[2] = test system: tumor cell-induced metastases; experiment: Inhibition of tumor cell-induced metastases in C57BL/6 mice; assay type: in vivo; conditions: i.v. daily, 25μg of SF-6,5 per mouse, after induction of metastasis
[3] = target: T1, platelet GPIIb-IIIa receptor (Homo sapiens, UniProt P05106+P08514); experiment: Inhibition of ADP-induced platelet aggregation (platelet rich plasma); assay type: cell-based
T1 construct: Platelet concentrates were prepared from human whole blood; endogenous in cells; host or cells: human platelets in platelet rich plasma
T1 sequence (P08514 32-887 limits assumed): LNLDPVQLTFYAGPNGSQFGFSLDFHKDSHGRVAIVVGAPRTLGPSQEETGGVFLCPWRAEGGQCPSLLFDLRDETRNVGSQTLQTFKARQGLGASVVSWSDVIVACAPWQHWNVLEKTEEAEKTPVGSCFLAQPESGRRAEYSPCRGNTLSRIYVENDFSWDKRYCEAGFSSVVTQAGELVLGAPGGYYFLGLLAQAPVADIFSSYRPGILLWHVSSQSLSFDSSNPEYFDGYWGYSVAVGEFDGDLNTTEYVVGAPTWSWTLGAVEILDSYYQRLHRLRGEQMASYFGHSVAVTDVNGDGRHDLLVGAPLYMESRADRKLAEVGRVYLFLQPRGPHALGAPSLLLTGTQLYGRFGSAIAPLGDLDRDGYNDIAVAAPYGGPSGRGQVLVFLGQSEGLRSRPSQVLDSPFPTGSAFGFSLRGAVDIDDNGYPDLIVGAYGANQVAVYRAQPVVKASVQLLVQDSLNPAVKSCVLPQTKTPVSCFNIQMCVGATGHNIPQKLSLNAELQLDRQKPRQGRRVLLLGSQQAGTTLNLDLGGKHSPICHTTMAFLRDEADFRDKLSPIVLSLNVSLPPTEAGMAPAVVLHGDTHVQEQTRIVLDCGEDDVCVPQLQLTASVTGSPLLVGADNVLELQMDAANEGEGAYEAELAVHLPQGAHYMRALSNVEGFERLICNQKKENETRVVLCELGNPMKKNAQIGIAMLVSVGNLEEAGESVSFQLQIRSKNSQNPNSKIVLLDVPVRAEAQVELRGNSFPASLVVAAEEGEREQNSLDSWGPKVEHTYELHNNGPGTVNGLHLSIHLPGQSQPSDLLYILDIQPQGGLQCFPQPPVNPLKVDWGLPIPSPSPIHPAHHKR
T1 sequence (P08514 891-1039 limits assumed): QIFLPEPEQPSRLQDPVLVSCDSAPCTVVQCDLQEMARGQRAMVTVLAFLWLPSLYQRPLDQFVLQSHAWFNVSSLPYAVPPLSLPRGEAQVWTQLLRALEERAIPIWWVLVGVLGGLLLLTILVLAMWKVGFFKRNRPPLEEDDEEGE
T1 sequence (P05106 27-788): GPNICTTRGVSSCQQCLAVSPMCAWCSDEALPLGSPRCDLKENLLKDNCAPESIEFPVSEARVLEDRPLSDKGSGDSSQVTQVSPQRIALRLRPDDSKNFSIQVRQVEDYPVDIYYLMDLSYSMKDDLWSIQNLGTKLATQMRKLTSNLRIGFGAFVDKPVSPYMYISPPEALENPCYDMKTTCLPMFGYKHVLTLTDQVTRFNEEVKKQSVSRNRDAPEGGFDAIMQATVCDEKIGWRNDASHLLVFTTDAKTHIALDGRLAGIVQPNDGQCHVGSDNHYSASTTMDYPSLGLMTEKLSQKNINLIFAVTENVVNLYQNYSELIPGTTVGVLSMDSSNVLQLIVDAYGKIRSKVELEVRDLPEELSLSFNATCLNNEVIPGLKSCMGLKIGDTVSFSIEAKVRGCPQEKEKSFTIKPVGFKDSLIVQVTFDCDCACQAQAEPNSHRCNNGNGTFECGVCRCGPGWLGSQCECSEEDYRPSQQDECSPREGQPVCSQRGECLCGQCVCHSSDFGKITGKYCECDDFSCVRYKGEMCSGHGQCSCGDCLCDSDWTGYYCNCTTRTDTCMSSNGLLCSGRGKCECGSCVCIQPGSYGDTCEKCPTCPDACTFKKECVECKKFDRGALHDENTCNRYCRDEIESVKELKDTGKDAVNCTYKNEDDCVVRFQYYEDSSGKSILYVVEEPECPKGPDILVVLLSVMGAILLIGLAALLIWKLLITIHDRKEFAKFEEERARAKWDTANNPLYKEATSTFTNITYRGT
Description: To investigate the inhibitory role of the RGD analogues on adhesion, the platelet GPIIb-IIIa receptor which mediates platelet aggregation upon activation was used as a model.
Platelet concentrates were prepared from human whole blood in 10% adenine-citrate-dextrose in Fenwall bags (Baxter Travenol, Israel) followed by standard AABB protocol. Platelet rich plasma was prepared by centrifugation (2500 rpm for 5 min). Samples of platelets were counted in a Minos AST Cell Counter (Levoiselle, France). Cell aggregation was induced by […] and monitored at […] in a 4-channel Aggregometer (Bio-Data, Hatboro, Pa.). To evaluate the effect of the various RGD peptides and the peptide analogues, the platelet rich plasma was pre-incubated with the various inhibitors for 10 min at 37° C. with 10μsolutions followed by the induction of aggregation.
To examine the specificity of the inhibitory effect of the RGD-analogues on platelet aggregation, the cells were treated with various peptidic (RGD and GRGDSP) and non-peptidic (SF-6,6, SF-6,5 and AC-15) RGD analogues used at a fixed sub-saturating concentration of 0.5 mM.
An in vitro assay as described in Example 17 was carried out with the compound NS-11 to examine its ability to interfere with platelet aggregation, and compared it to the SF-6,5 surrogate.
Platelet rich plasma (PRP) was prepared from acid/citrate/dextrose anti-coagulated fresh human blood by differential centrifugation. Platelet aggregation was induced by […] and monitored at 695 nm by a 4-channel Aggregometer (Bio-Data, PA). To evaluate the effect of the RGDS peptide and the NS-8, NS-11 and NS-15 analogs, the PRP was preincubated with the inhibitors for 10 minutes at 37° C., prior to the induction of aggregation. […] In fact, 50% inhibition of platelet aggregation was achieved using a 30-fold lower concentration of NS-11 than that of RGDS.

[4] = test system: B16-melanoma cells adhesion to FN; experiment: Inhibition of B16-melanoma cell adhesion to FN; assay type: cell-based, murine
[5] = test system: CD4^+ T cell adhesion to FN; experiment: Inhibition of activated CD4+ T cell adhesion to FN; assay type: cell-based, human
Description: To examine the adhesive properties of the T cells, 1 μg/50 μl/well of either fibronectin (FN) (Sigma), the 120 kD cell attachment fragment of FN (Telios Pharm. Inc. San Diego, CA), or laminin (LN) (Sigma), were added to 96-flat bottom microtiter-wells for 12 h. Unbound proteins were then washed away and remaining binding sites were blocked with 0.1% bovine serum albumin (BSA) added to the wells for 2 h and washed. CD4+T cells were purified from peripheral blood mononuclear leukocytes obtained from healthy human donors. The mononuclear cells were isolated using a Ficoll gradient, washed and incubated in RPMI supplemented with 10% fetal calf serum (FCS) and antibiotics in petri dishes at 37° C. humidified CO2 incubator. After 2 h, the non-adherent cells were isolated and applied on nylon-wool columns (1.5 h). CD4^+ T cells were then negatively selected by exposure of the cells to a cocktail of anti-CD8, CD19, and CD14 monoclonal antibodies (mAb) conjugated to magnetic-beads (Advanced Magnetics, MA). Unbound cells were recovered and their phenotype was examined. Purity of the CD4^+ T cells was always greater than 92% as determined by FACScan.
The purified CD4^+ T cells were radioactively labeled with ^51 [Cr](New England Nuclear) in RPMI +20% FCS for 2 h and washed. The cells were counted and seeded (0.2×10^5 cells) on the precoated microtiter wells in the presence or the absence of the various inhibitors. Coating was made either with FN, the 120 kD cell-attachment fragment of FN or with control adhesive protein laminin (LN). The inhibitors were various surrogates according to the invention, other test molecules or mAb. After 30 min incubation (in […] CO2 -- humidified incubator) the T cells were activated by 10 ng/ml phorbol myristate acetate (PMA) and the percent of T cells attached to the protein substrates was measured. Unbound cells were washed away after 20-30 min, the bound cells were lysed and their radioactivity was measured using radioactive counter. The amount of the radioactivity of the cell lysates represent the matrix-adherent cells and percent binding was calculated in comparison to the total radioactivity added to the wells. Activated T cell adhesion to control wells or to wells coated with BSA was always 2-5%; the level of adhesion of the non-activated T cells was always below 5%. Where indicated, 1/200 diluted mAb anti-CD29 (anti-β1 mAb Serotec, GB), or 1/400 diluted anti-VLA5 (the β1α5 FN-integrin receptor) mAb (Telios Pharm. Inc. San Diego), or 0.2 mM of RGD, GRGDSPK or GRGESP peptides (Sigma) were used. […] The results shown in Tables 1A, 1B and 1C represent data obtained from several experiments that produced essentially similar results.
In a second series of experiments, FN was used in the adhesion assay carried out with the RGD surrogates NS-8, NS-11 and NS-15 in comparison to RGDS peptide.
In a third series of experiments, FN was used in the adhesion assay with the surrogates SF-6,5 and NS-11 and compared to the peptide GRGDSP.

trypsin = experiment: Treatment with trypsin (HPLC monitoring of hydrolysis); assay type: in vitro ADME; conditions: 0.25% trypsin, 37° C., HPLC at 220 nm, aliquots 5, 30, 60 min
Description: Compound SF-6,5 and the GRGDS peptide (50 μg in 100 μl PBS) were incubated at 37° C. and exposed to 0.25% trypsin (Gibco; 50μl in modified Puck's buffer). Aliquots were taken after 5, 30 and 60 min and monitored by HPLC at 220 nm.

Ser-Asp-Gly-Arg (SDGR; printed: Ser-Asp-Gly-Arg)
Inhibition of cell spreading, in words [1]: inhibit spreading of BHK cells and chick embryo fibroblasts on vitronectin-coated substrates and on fibronectin-coated substrates

GRGDSP [reference compound]
Inhibition of tumor cell-induced metastases [2]: failed to inhibit metastases
Percent inhibition of aggregation ([3]; 0.1 mM, ADP-induced): 75%
% Adhesion of activated tumor cells to FN: (% inhibition) ([4]; Conc. 25 μg. ml): 30%
% Adhesion of activated tumor cells to FN: (% inhibition) ([4]; Conc. 50 μg. ml): 40%
% Adhesion of activated tumor cells to FN: (% inhibition) ([4]; Conc. 100 μg. ml): 65%
% Adhesion of activated CD4^+ T cell to FN: (% inhibition) ([5]; Conc. 25 μg. ml): 40%
% Adhesion of activated CD4^+ T cell to FN: (% inhibition) ([5]; Conc. 50 μg. ml): 50%
% Adhesion of activated CD4^+ T cell to FN: (% inhibition) ([5]; Conc. 100 μg. ml): 75%

GRGDS [reference compound]
Stability to trypsin (trypsin): completely hydrolized after 5 min

N=C(N)NCCCC(=O)N1CCCC(C(=O)NCCC(=O)O)C1 (stereo not shown) [NS-11]
inhibition at 100 µM ([3]; 0.1 mM, ADP-induced, read-out: Percent inhibition of aggregation): 90%
Effect on platelet aggregation better than that of the RGD-peptide by ([3]; 0.1 mM, same concentration): ~20%
inhibition at 300 µM ([3]; 0.3 mM, ADP-induced, read-out: Percent inhibition of aggregation): 100%
Inhibition of platelet aggregation, comparison in words ([3]; FIG. 5, Example 19): better inhibitor of platelet aggregation than either NS-8 and NS-15; also recorded: found to inhibit platelet aggregation better than the RGD-containing peptide (RGDS)
50% inhibition of platelet aggregation: lower concentration than that of RGDS ([3]; FIG. 5, vs RGDS): 30 fold
Inhibition of platelet aggregation, in words ([3]; Table 3): better inhibitor of platelet aggregation than SF-6,5; also recorded: significantly better inhibitor than the RGD-containing peptide
% Adhesion of activated tumor cells to FN: (% inhibition) ([4]; Conc. 25 μg. ml): 35%
% Adhesion of activated tumor cells to FN: (% inhibition) ([4]; Conc. 50 μg. ml): 45%
% Adhesion of activated tumor cells to FN: (% inhibition) ([4]; Conc. 100 μg. ml): 70%
% Adhesion of activated CD4^+ T cell to FN: (% inhibition) ([5]; Conc. 25 μg. ml): 30%
% Adhesion of activated CD4^+ T cell to FN: (% inhibition) ([5]; Conc. 50 μg. ml): 50%
% Adhesion of activated CD4^+ T cell to FN: (% inhibition) ([5]; Conc. 100 μg. ml): 85%
Inhibition of cell adhesion relative to RGDS, in words ([5]; Table 1B): better inhibitor of cell adhesion than the RGDS peptide
% Inhibition of adhesion ([5]; Table 1B, surrogates 0.2 mM, CD4^+ T cell to FN): 71%
% Adhesion of activated CD4^+ to FN ([5]; Table 1B, surrogates 0.2 mM, none 65): 19%
